# Source: patent US6849757B2, “Antiangiogenic drug to treat cancer, arthritis and retinopathy” (Abbott Laboratories, priority 1998, dated 2005)
# Tested on: Human Microvascular Endothelial Cells (HMVEC)
# Test: Endothelial cell migration assay (modified Boyden chamber, bFGF-stimulated)
# Assay type: cell-based
# Settings: HMVEC migration toward bFGF, 4 hours at 37° C., percent inhibition of migration compared to a positive control; for inhibition at 0.2 µM: Homo sapiens, 200 nM test compound
# Description: Endothelial Cell Migration Assay
# The endothelial cell migration assay was performed essentially as described by Polverini, P. J. et al., Methods Enzymol, 198: 440-450 (1991). Briefly, Human Microvascular Endothelial Cells (HMVEC) were starved overnight in DMEM containing 0.1% bovine serum albumin (BSA). Cells were then harvested with trypsin and resuspended in DMEM with 0.1% BSA at a concentration of 1.5×10^6 cells/mL. Cells were added to the bottom of a 48-well modified Boyden chamber (Nucleopore Corporation, Cabin John, Md.). The chamber was assembled and inverted, and cells were allowed to attach for 2 hours at 37° C. to polycarbonate chemotaxis membranes (5 μm pore size) that had been soaked in 0.1% gelatin overnight and dried. The chamber was then reinverted and basic fibroblast growth factor (bFGF) and test substances were added to the wells of the upper chamber (to a total volume of 50 μL); the apparatus was then incubated for 4 hours at 37° C. Membranes were recovered, fixed and stained (DiffQuick, Fisher Scientific, Pittsburgh, Pa.) and the number of cells that had migrated to the upper chamber per 10 high power fields were counted. Background migration to DMEM+0.1% BSA was subtracted and the data reported as the number of cells migrated per 10 high power fields (400×) or when results from multiple experiments were combined, as the percent inhibition of migration compared to a positive control.
Compound,inhibition at 0.2 µM [%],% inhibition at 200 nM test compound [%]
"COC(=O)c1ccc(NC(=O)[C@@H](CCCCN)NC(=O)OC(C)(C)C)cc1-c1ccccc1O [Example 10, (R)-methyl 4-[[6-amino-2-[[(1,1-dimethylethoxy)carbonyl]amino]-1-oxohexyl]amino]-2-(2-hydroxyphenyl)benzoate]",80,
COC(=O)c1ccc(NC(=O)[C@H](CCCCNC(=O)OCc2ccccc2)NC(C)=O)cc1-c1cccc(OCc2ccccc2)c1 [Example 12],,29
"CC(=O)N[C@@H](CCCCN)C(=O)Nc1ccc(C(=O)O)c(-c2cccc(O)c2)c1 [Example 15, (S)-4-[[2-(acetylamino)-6-amino-1-oxohexyl)amino]-2-(3-hydroxphenyl)benzoic acid]",,64
CC(=O)NC(CCCCN)C(=O)Nc1ccc(C(=O)N[C@@H](CC(N)=O)C(=O)O)c(-c2ccccc2)c1 (stereo partly shown) [Example 17],,>95
"NC(CCCCNC(=O)OCc1ccccc1)C(=O)Nc1ccc(CC(=O)N[C@@H](CC(=O)O)C(=O)O)cc1 (stereo partly drawn) [Example 20, (S)-N-[[4-[[2-amino-6-[[(phenylmethoxy)carbonyl]amino]-1-oxohexyl]amino]phenyl]acetyl]-L-aspartic Acid]",34,
"CC(C)(C)OC(=O)N[C@@H](CCCCN)C(=O)Nc1ccc(C(=O)O)c(-c2cccc(O)c2)c1 [Example 31, 5-(((2S)-6-amino-1-(tert-butoxycarbonyl)aminohexanoyl)amino)-3′-hydroxy(1,1′-biphenyl)-2-carboxylic Acid]",,>95
(S)-N-[4-[[2-(acetylamino)-6-amino-1-oxohexyl]amino]benzoyl]-L-α-asparagine [Example 18],,90
